In patent publication US7514240B2, “EGR-EGFR complex” (Japan Science and Technology Agency, priority 2002, dated 2009):

Columns and labels:
EGFR (A431 cell) = target: T1, EGFR (A431 cell) (Homo sapiens, UniProt P00533); assay: EGF-EGFR binding inhibition assay (Eu-EGF, A431 cells, DELFIA time-resolved fluorescence); settings: Eu-EGF 5 nmol/L, compounds at 1, 3, 10 and 30 μg/mL, nonlinear least square fitting
T1 construct: host or cells: A431 cells
Protocol: A431 cells (human squamous cell carcinoma cells, purchased from ATCC) for use in this experiment were subcultured using a medium (hereinafter denoted as a medium) prepared by adding inactivated FBS (JRH), Penicillin-streptmycin (GIBCO), and Amphotelicin B (Sigma) at final concentrations of 10 vol %, 50 U/mL-50 μg/mL, and 1 μg/mL, respectively, to DMEM (Sigma). A431 cells suspended in the medium were inoculated into a 96-well microtiter plate (black, COSTAR) at 10,000 cells/100 μL/well, and then pre-cultured overnight in a CO2 incubator (37° C., 5% CO2). After the media within the wells had been completely removed, the wells were washed once in 50 mmol/L HEPES-HCl (pH 7.8, hereinafter denoted as a Buffer) containing 138 mmol/L NaCl, 5 mmol/L KCl, 1.2 mmol/L MgSO4, 1.2 mmol/L CaCl2, 75 μmol/L EDTA and 0.2 vol % BSA, and then a Buffer was added at 49 μL/well. Subsequently, DMSO was added at 1 μL/well, and then Eu-EGF that had been diluted with a Buffer at various concentrations were added at 50 μL/well. The plate was incubated at room temperature for 1 hour, washed 5 times with an ice-cold buffer (200 μL/well), and then a DELFIA enhancement reagent (PerkinElmer life sciences) was added at 100 μL/well. After further 30 minutes of incubation at room temperature, time-resolved fluorescence was measured using a plate reader (ARVO-sx, PerkinElmer life sciences). Excitation wavelength and emission wavelength used herein were 340 nm and 615 nm, respectively.
A value of specific binding was calculated by subtracting a measured value of non-specific binding from a value measured at each ligand concentration. […]
A representative compounds for site 1 of 2) in Example 6, a representative compounds for site 2 of 2) in Example 6, and a representative compounds for site 3 of 1) in Example 6 were subjected to this assay. […] After 30 minutes of incubation at room temperature, time-resolved fluorescence was measured using a plate reader (ARVO-sx, PerkinElmer life sciences). […] Assay was run in duplicate, and then data were processed using each average measured value. […]

[1] = target: T2, EGF receptor of A431 cells (Homo sapiens, UniProt P00533); assay: EGFR antagonist activity using EGFR phosphorylation as an index (western blotting); format: cell-based; settings: EGF 100 ng/mL
T2 construct: endogenous in cells; host or cells: A431 cells
T2 sequence (P00533 25-1210): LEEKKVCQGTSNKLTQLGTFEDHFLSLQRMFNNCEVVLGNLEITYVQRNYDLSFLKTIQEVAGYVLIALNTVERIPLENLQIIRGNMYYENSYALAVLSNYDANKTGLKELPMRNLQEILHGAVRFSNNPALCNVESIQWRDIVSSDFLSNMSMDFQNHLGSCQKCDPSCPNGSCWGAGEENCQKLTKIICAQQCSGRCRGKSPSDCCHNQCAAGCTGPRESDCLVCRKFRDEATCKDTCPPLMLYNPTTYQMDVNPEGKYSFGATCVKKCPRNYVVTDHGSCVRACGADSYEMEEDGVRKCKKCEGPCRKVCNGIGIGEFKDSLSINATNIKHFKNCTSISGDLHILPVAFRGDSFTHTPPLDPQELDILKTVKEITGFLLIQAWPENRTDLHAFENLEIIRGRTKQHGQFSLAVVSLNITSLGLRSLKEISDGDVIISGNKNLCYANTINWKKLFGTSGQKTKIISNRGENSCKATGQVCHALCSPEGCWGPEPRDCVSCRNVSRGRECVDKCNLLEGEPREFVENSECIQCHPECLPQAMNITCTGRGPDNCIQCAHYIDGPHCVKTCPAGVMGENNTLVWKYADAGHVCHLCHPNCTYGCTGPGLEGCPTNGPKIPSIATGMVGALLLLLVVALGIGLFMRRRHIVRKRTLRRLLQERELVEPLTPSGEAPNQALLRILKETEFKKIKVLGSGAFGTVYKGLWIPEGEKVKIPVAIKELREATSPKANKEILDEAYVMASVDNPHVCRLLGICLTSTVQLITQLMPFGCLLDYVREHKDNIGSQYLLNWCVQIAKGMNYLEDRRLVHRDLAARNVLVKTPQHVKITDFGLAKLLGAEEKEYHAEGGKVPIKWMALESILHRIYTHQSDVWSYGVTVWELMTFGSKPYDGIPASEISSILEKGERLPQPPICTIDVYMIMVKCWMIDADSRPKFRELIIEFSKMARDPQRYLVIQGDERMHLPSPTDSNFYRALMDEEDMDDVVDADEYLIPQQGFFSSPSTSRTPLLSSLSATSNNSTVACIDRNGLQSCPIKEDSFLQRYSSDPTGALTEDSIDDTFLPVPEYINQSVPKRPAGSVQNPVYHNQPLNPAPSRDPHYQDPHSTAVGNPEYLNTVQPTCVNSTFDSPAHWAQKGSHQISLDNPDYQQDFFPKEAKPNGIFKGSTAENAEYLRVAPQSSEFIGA
Protocol: When EGFR is activated by binding of a ligand, intracellular regions are phosphorylated. This phosphorylation is detectable using a phosphorylated receptor-specific antibody. A431 cells were cultured (BNR-110M, ESPEC CORP.) using Dulbecco's Modified Eagle's Medium (Sigma) containing 10% fetal calf serum (JRH Bioscience) under an environment of 5% CO2 at 37° C. for 1 day. The cells were then cultured in a serum-free medium for 1 day. When agonist activity was assayed, a medium containing a sample at a concentration of 10 μg/mL was added, and then the resultant was allowed to stand for 10 minutes. Furthermore, when antagonist activity was assayed, a medium containing a sample at a concentration of 10 μg/mL or 100 μg/mL was added, and then the resultant was allowed to stand for 20 minutes. […] The media were removed, the cells were washed with cooled phosphate buffered saline (PBS, Sigma), and then a heated cell lysis buffer (125 mmol/L Tris (Wako Pure Chemical Industries, Ltd.)-hydrochloric acid (Wako Pure Chemical Industries, Ltd.) buffer (pH 6.8) containing 20% glycerol (Wako Pure Chemical Industries, Ltd.), 2% SDS (Sigma), 5% 2-Mercaptoethanol (Sigma), and 0.025 mg/mL Bromo Phenol Blue (Sigma)) was added, thereby obtaining a cell lysate solution. The obtained cell lysate was applied to 7.5% polyacrylamide gel (e-PAGEL, ATTO Corporation), and then subjected to separation by electrophoresis (AE-6400, ATTO Corporation) under a condition of 30 mA per sheet of gel using Tris/glycine/SDS buffer (Bio-Rad Laboratories, Inc.). The resultant was transferred to a polyvinylidene difluoride (PVDF) membrane (clear blot membrane-P, ATTO Corporation) under conditions of 200 mA for 1 hour using semi-dry blotting system (AE-6675, ATTO Corporation). The PVDF membrane was blocked using PBS containing 5% skim milk (Wako Pure Chemical Industries, Ltd.) at room temperature for 1 hour.

T1 sequence (P00533 25-1210): as above

IC50 (EGFR (A431 cell))	inhibition of activation of the EGF receptor due to EGF (EGFR phosphorylation) ([1]; sample 100 μg/mL)	inhibition of activation of the EGF receptor due to EGF (EGFR phosphorylation) ([1]; sample 10 μg/mL)	SMILES
57.8 µM	inhibited activation of the EGF receptor	–	CCc1cc2c(cc1C(=O)CSc1ncccc1C(=O)O)C(C)(C)CCC2(C)C [2-[2-(3-ethyl-5,5,8,8-tetramethyl-5,6,7,8-tetrahydro-naphthalene-2-yl)-2-oxo-ethylsulfanyl]-nicotinic acid]
16.7 µM	–	inhibited activation of the EGF receptor	CN1CCN(CCCN2c3ccccc3Sc3ccc(C(F)(F)F)cc32)CC1.Cl.Cl [10-[3-(4-methyl-piperazine-1-yl)-propyl]-2-trifluoromethyl-10H-phenothiazine dihydrochloride]
40.1 µM	–	inhibited activation of the EGF receptor	CCCCCCSc1nc2c(c(=O)[nH]c(=O)n2C)n1CCC [8-hexylsulfanyl-3-methyl-7-propyl-3,7-dihydro-purine-2,6-dione]
